Tested on: desired test plant species
Assay: Foliar-applied postemergence herbicidal activity in direct seeded rice (Table 6)
Assay type: in vivo
Conditions: 21 DAA
From the text: Seeds or nutlets of the desired test plant species were planted in a soil matrix prepared by mixing a loam soil (43 percent silt, 19 percent clay, and 38 percent sand, with a pH of about 8.1 and an organic matter content of about 1.5 percent) and river sand in an 80 to 20 ratio. The soil matrix was contained in plastic pots with a surface area of 139.7 cm^2. When required to ensure good germination and healthy plants, a fungicide treatment and/or other chemical or physical treatment was applied. The plants were grown for 10-17 d in a greenhouse with an approximate 14-h photoperiod which was maintained at about 29° C. during the day and 26° C. during the night. Nutrients and water were added on a regular basis and supplemental lighting was provided with overhead metal halide 1000-Watt lamps as necessary. The plants were employed for testing when they reached the second or third true leaf stage. Treatments consisted of compounds 45, 34, and 66. Weighed amounts of technical compounds were placed in individual 25 mL glass vials and dissolved in 8 mL of 97:3 v/v acetone-DMSO to obtain stock solutions. […] The spray application solutions were prepared by removing 4 mL of the stock solution and diluting with 4 mL of 97:3 v/v acetone-DMSO and continued serial dilution to obtain 1⁄2×, 1⁄4×, 1⁄8×, and 1/16× rates of the high rate. Spray solutions were diluted to the appropriate final concentrations with the addition of 8 mL of an aqueous mixture of 1.875% (v/v) Agri-dex crop oil concentrate. The final 12-mL spray solutions each contained 1.25% (v/v) Agri-dex crop oil concentrate, 32.3% acetone, and 1.0% DMSO. Compound requirements are based upon a 12 mL application volume at a rate of 187 L/ha. Spray solutions were applied to the plant material with an overhead Mandel track sprayer equipped with […] nozzles calibrated to deliver 187 L/ha over an application area of 0.503 square meters (m^2) at a spray height of 18 inches ([…]) above average plant canopy height. Control plants were sprayed in the same manner with the solvent blank. The treated plants and control plants were placed in a greenhouse as described above and watered by sub-irrigation to prevent wash-off of the test compounds. After approximately 3 weeks, the condition of the test plants, compared with that of the untreated plants, was determined visually and scored on a scale of 0 to 100 percent where 0 corresponds to no injury and 100 corresponds to complete kill. By applying the well-accepted probit analysis as described by J. Berkson in Journal of the […], 48, 565 (1953) and by D. Finney in “Probit Analysis” Cambridge University Press (1952) or by plotting the mean data and fitting a logarithmic curve to the portion of the data where there was a dose response using Microsoft Excel®, the above data can be used to calculate GR50 and GR90 values, which are defined as growth reduction factors that correspond to the effective dose of herbicide required to kill or control 50 percent or 90 percent, respectively, of a target plant.

COC(=O)c1nc(-c2ccc(Cl)c(OC)c2F)c(F)c(N)c1OC [Compound 34]
Mean Visual Injury (%)-21 Days After Application AESSE (AESSE (Aeschynomene sensitiva, sensitive jointvetch), 4.38 g ae/ha): 100%
Mean Visual Injury (%)-21 Days After Application AESSE (AESSE (Aeschynomene sensitiva, sensitive jointvetch), 8.75 g ae/ha): 100%
Mean Visual Injury (%)-21 Days After Application AESSE (AESSE (Aeschynomene sensitiva, sensitive jointvetch), 17.5 g ae/ha): 100%
Mean Visual Injury (%)-21 Days After Application AESSE (AESSE (Aeschynomene sensitiva, sensitive jointvetch), 35 g ae/ha): 100%
Mean Visual Injury (%)-21 Days After Application AESSE (AESSE (Aeschynomene sensitiva, sensitive jointvetch), 70 g ae/ha): 100%
GR50 AESSE (AESSE (Aeschynomene sensitiva, sensitive jointvetch), dose to kill or control 50 percent): <4.38 g ae/ha
GR90 AESSE (AESSE (Aeschynomene sensitiva, sensitive jointvetch), dose to kill or control 90 percent): <4.38 g ae/ha
Mean Visual Injury (%)-21 Days After Application BRAPP (BRAPP (Brachiaria platyphylla, broadleaf signalgrass), 4.38 g ae/ha): 73%
Mean Visual Injury (%)-21 Days After Application BRAPP (BRAPP (Brachiaria platyphylla, broadleaf signalgrass), 8.75 g ae/ha): 77%
Mean Visual Injury (%)-21 Days After Application BRAPP (BRAPP (Brachiaria platyphylla, broadleaf signalgrass), 17.5 g ae/ha): 93%
Mean Visual Injury (%)-21 Days After Application BRAPP (BRAPP (Brachiaria platyphylla, broadleaf signalgrass), 35 g ae/ha): 92%
Mean Visual Injury (%)-21 Days After Application BRAPP (BRAPP (Brachiaria platyphylla, broadleaf signalgrass), 70 g ae/ha): 93%
GR50 BRAPP (BRAPP (Brachiaria platyphylla, broadleaf signalgrass), dose to kill or control 50 percent): <4.38 g ae/ha
GR90 BRAPP (BRAPP (Brachiaria platyphylla, broadleaf signalgrass), dose to kill or control 90 percent): 30.2 g ae/ha
Mean Visual Injury (%)-21 Days After Application CYPDI (CYPDI (Cyperus difformis, small-flower flatsedge), 4.38 g ae/ha): 87%
Mean Visual Injury (%)-21 Days After Application CYPDI (CYPDI (Cyperus difformis, small-flower flatsedge), 8.75 g ae/ha): 95%
Mean Visual Injury (%)-21 Days After Application CYPDI (CYPDI (Cyperus difformis, small-flower flatsedge), 17.5 g ae/ha): 100%
Mean Visual Injury (%)-21 Days After Application CYPDI (CYPDI (Cyperus difformis, small-flower flatsedge), 35 g ae/ha): 100%
Mean Visual Injury (%)-21 Days After Application CYPDI (CYPDI (Cyperus difformis, small-flower flatsedge), 70 g ae/ha): 100%
GR50 CYPDI (CYPDI (Cyperus difformis, small-flower flatsedge), dose to kill or control 50 percent): <4.38 g ae/ha
GR90 CYPDI (CYPDI (Cyperus difformis, small-flower flatsedge), dose to kill or control 90 percent): 5.8 g ae/ha
Mean Visual Injury (%)-21 Days After Application CYPES (CYPES (Cyperus esculentus, yellow nutsedge), 4.38 g ae/ha): 73%
Mean Visual Injury (%)-21 Days After Application CYPES (CYPES (Cyperus esculentus, yellow nutsedge), 8.75 g ae/ha): 73%
Mean Visual Injury (%)-21 Days After Application CYPES (CYPES (Cyperus esculentus, yellow nutsedge), 17.5 g ae/ha): 85%
Mean Visual Injury (%)-21 Days After Application CYPES (CYPES (Cyperus esculentus, yellow nutsedge), 35 g ae/ha): 95%
Mean Visual Injury (%)-21 Days After Application CYPES (CYPES (Cyperus esculentus, yellow nutsedge), 70 g ae/ha): 100%
GR50 CYPES (CYPES (Cyperus esculentus, yellow nutsedge), dose to kill or control 50 percent): <4.38 g ae/ha
GR90 CYPES (CYPES (Cyperus esculentus, yellow nutsedge), dose to kill or control 90 percent): 27.4 g ae/ha
Mean Visual Injury (%)-21 Days After Application CYPIR (CYPIR (Cyperus iria, rice flatsedge), 4.38 g ae/ha): 83%
Mean Visual Injury (%)-21 Days After Application CYPIR (CYPIR (Cyperus iria, rice flatsedge), 8.75 g ae/ha): 97%
Mean Visual Injury (%)-21 Days After Application CYPIR (CYPIR (Cyperus iria, rice flatsedge), 17.5 g ae/ha): 98%
Mean Visual Injury (%)-21 Days After Application CYPIR (CYPIR (Cyperus iria, rice flatsedge), 35 g ae/ha): 100%
Mean Visual Injury (%)-21 Days After Application CYPIR (CYPIR (Cyperus iria, rice flatsedge), 70 g ae/ha): 100%
GR50 CYPIR (CYPIR (Cyperus iria, rice flatsedge), dose to kill or control 50 percent): <4.38 g ae/ha
GR90 CYPIR (CYPIR (Cyperus iria, rice flatsedge), dose to kill or control 90 percent): 6.7 g ae/ha
Mean Visual Injury (%)-21 Days After Application ECHCG (ECHCG (Echinochloa crus-galli, barnyardgrass), 4.38 g ae/ha): 93%
Mean Visual Injury (%)-21 Days After Application ECHCG (ECHCG (Echinochloa crus-galli, barnyardgrass), 8.75 g ae/ha): 93%
Mean Visual Injury (%)-21 Days After Application ECHCG (ECHCG (Echinochloa crus-galli, barnyardgrass), 17.5 g ae/ha): 96%
Mean Visual Injury (%)-21 Days After Application ECHCG (ECHCG (Echinochloa crus-galli, barnyardgrass), 35 g ae/ha): 98%
Mean Visual Injury (%)-21 Days After Application ECHCG (ECHCG (Echinochloa crus-galli, barnyardgrass), 70 g ae/ha): 95%
GR50 ECHCG (ECHCG (Echinochloa crus-galli, barnyardgrass), dose to kill or control 50 percent): <4.38 g ae/ha
GR90 ECHCG (ECHCG (Echinochloa crus-galli, barnyardgrass), dose to kill or control 90 percent): <4.38 g ae/ha
Mean Visual Injury (%)-21 Days After Application ECHCO (ECHCO (Echinochloa colonum, junglerice), 4.38 g ae/ha): 70%
Mean Visual Injury (%)-21 Days After Application ECHCO (ECHCO (Echinochloa colonum, junglerice), 8.75 g ae/ha): 80%
Mean Visual Injury (%)-21 Days After Application ECHCO (ECHCO (Echinochloa colonum, junglerice), 17.5 g ae/ha): 92%
Mean Visual Injury (%)-21 Days After Application ECHCO (ECHCO (Echinochloa colonum, junglerice), 35 g ae/ha): 97%
Mean Visual Injury (%)-21 Days After Application ECHCO (ECHCO (Echinochloa colonum, junglerice), 70 g ae/ha): 98%
GR50 ECHCO (ECHCO (Echinochloa colonum, junglerice), dose to kill or control 50 percent): <4.38 g ae/ha
GR90 ECHCO (ECHCO (Echinochloa colonum, junglerice), dose to kill or control 90 percent): 18.6 g ae/ha
Mean Visual Injury (%)-21 Days After Application LEFCH (LEFCH (Leptochloa chinensis, Chinese sprangletop), 4.38 g ae/ha): 0%
Mean Visual Injury (%)-21 Days After Application LEFCH (LEFCH (Leptochloa chinensis, Chinese sprangletop), 8.75 g ae/ha): 17%
Mean Visual Injury (%)-21 Days After Application LEFCH (LEFCH (Leptochloa chinensis, Chinese sprangletop), 17.5 g ae/ha): 30%
Mean Visual Injury (%)-21 Days After Application LEFCH (LEFCH (Leptochloa chinensis, Chinese sprangletop), 35 g ae/ha): 40%
Mean Visual Injury (%)-21 Days After Application LEFCH (LEFCH (Leptochloa chinensis, Chinese sprangletop), 70 g ae/ha): 37%
GR50 LEFCH (LEFCH (Leptochloa chinensis, Chinese sprangletop), dose to kill or control 50 percent): >70 g ae/ha
GR90 LEFCH (LEFCH (Leptochloa chinensis, Chinese sprangletop), dose to kill or control 90 percent): >70 g ae/ha
Mean Visual Injury (%)-21 Days After Application ORYSA ‘Clearfield 171’ (ORYSA (Oryza sativa ‘Clearfield 171’, rice), 4.38 g ae/ha): 0%
Mean Visual Injury (%)-21 Days After Application ORYSA ‘Clearfield 171’ (ORYSA (Oryza sativa ‘Clearfield 171’, rice), 8.75 g ae/ha): 3%
Mean Visual Injury (%)-21 Days After Application ORYSA ‘Clearfield 171’ (ORYSA (Oryza sativa ‘Clearfield 171’, rice), 17.5 g ae/ha): 12%
Mean Visual Injury (%)-21 Days After Application ORYSA ‘Clearfield 171’ (ORYSA (Oryza sativa ‘Clearfield 171’, rice), 35 g ae/ha): 23%
Mean Visual Injury (%)-21 Days After Application ORYSA ‘Clearfield 171’ (ORYSA (Oryza sativa ‘Clearfield 171’, rice), 70 g ae/ha): 22%
GR50 ORYSA ‘Clearfield 171’ (ORYSA (Oryza sativa ‘Clearfield 171’, rice), dose to kill or control 50 percent): >70 g ae/ha
GR90 ORYSA ‘Clearfield 171’ (ORYSA (Oryza sativa ‘Clearfield 171’, rice), dose to kill or control 90 percent): >70 g ae/ha
Mean Visual Injury (%)-21 Days After Application ORYSA ‘Wells’ (ORYSA (Oryza sativa ‘Wells’, rice), 4.38 g ae/ha): 0%
Mean Visual Injury (%)-21 Days After Application ORYSA ‘Wells’ (ORYSA (Oryza sativa ‘Wells’, rice), 8.75 g ae/ha): 0%
Mean Visual Injury (%)-21 Days After Application ORYSA ‘Wells’ (ORYSA (Oryza sativa ‘Wells’, rice), 17.5 g ae/ha): 3%
Mean Visual Injury (%)-21 Days After Application ORYSA ‘Wells’ (ORYSA (Oryza sativa ‘Wells’, rice), 35 g ae/ha): 8%
Mean Visual Injury (%)-21 Days After Application ORYSA ‘Wells’ (ORYSA (Oryza sativa ‘Wells’, rice), 70 g ae/ha): 7%
GR50 ORYSA ‘Wells’ (ORYSA (Oryza sativa ‘Wells’, rice), dose to kill or control 50 percent): >70 g ae/ha
GR90 ORYSA ‘Wells’ (ORYSA (Oryza sativa ‘Wells’, rice), dose to kill or control 90 percent): >70 g ae/ha
Mean Visual Injury (%)-21 Days After Application SCPJU (SCPJU (Scirpus juncoides, Japanese bulrush), 4.38 g ae/ha): 100%
Mean Visual Injury (%)-21 Days After Application SCPJU (SCPJU (Scirpus juncoides, Japanese bulrush), 8.75 g ae/ha): 100%
Mean Visual Injury (%)-21 Days After Application SCPJU (SCPJU (Scirpus juncoides, Japanese bulrush), 17.5 g ae/ha): 100%
Mean Visual Injury (%)-21 Days After Application SCPJU (SCPJU (Scirpus juncoides, Japanese bulrush), 35 g ae/ha): 100%
Mean Visual Injury (%)-21 Days After Application SCPJU (SCPJU (Scirpus juncoides, Japanese bulrush), 70 g ae/ha): 100%
GR50 SCPJU (SCPJU (Scirpus juncoides, Japanese bulrush), dose to kill or control 50 percent): <4.38 g ae/ha
GR90 SCPJU (SCPJU (Scirpus juncoides, Japanese bulrush), dose to kill or control 90 percent): <4.38 g ae/ha
Mean Visual Injury (%)-21 Days After Application SEBEX (SEBEX (Sesbania exaltata, hemp sesbania), 4.38 g ae/ha): 100%
Mean Visual Injury (%)-21 Days After Application SEBEX (SEBEX (Sesbania exaltata, hemp sesbania), 8.75 g ae/ha): 100%
Mean Visual Injury (%)-21 Days After Application SEBEX (SEBEX (Sesbania exaltata, hemp sesbania), 17.5 g ae/ha): 100%
Mean Visual Injury (%)-21 Days After Application SEBEX (SEBEX (Sesbania exaltata, hemp sesbania), 35 g ae/ha): 100%
Mean Visual Injury (%)-21 Days After Application SEBEX (SEBEX (Sesbania exaltata, hemp sesbania), 70 g ae/ha): 100%
GR50 SEBEX (SEBEX (Sesbania exaltata, hemp sesbania), dose to kill or control 50 percent): <4.38 g ae/ha
GR90 SEBEX (SEBEX (Sesbania exaltata, hemp sesbania), dose to kill or control 90 percent): <4.38 g ae/ha
